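Cultured in 96-well plates, cells were exposed to test compound for 48 hours across five concentrations. TGI marks complete inhibition of growth.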
Key:
Experiment in all cases: NCI anticancer screen, dose series, 48 h
[1] = system: UACC-62 melanoma
[2] = system: M19-MEL melanoma
[3] = system: A498 renal
[4] = system: SF-539 CNS
[5] = system: MALME-3M melanoma
[6] = system: UACC-257 melanoma
[7] = system: SN12C renal
[8] = system: HT29 colon
[9] = system: XF 498 CNS
[10] = system: SW-620 colon
[11] = system: SK-MEL-5 melanoma
[12] = system: UO-31 renal
[13] = system: OVCAR-5 ovarian
[14] = system: DLD-1 colon
[15] = system: NCI-H226 lung
[16] = system: HL-60(TB) leukemia
[17] = system: SK-OV-3 ovarian
[18] = system: IGROV1 ovarian
[19] = system: RXF-631 renal
[20] = system: ACHN renal
[21] = system: HOP-18 NSCLC
[22] = system: SNB-19 CNS
[23] = system: CAKI-1 renal
[24] = system: K-562 leukemia
[25] = system: HOP-92 NSCLC
[26] = system: SNB-75 CNS
[27] = system: TK-10 renal
[28] = system: OVCAR-8 ovarian
[29] = system: U251 CNS
[30] = system: NCI-H522 lung
[31] = system: EKVX NSCLC
[32] = system: DMS 114 small cell lung
[33] = system: LXFL 529 NSCLC
[34] = system: M14 melanoma
[35] = system: HCC-2998 colon
[36] = system: SF-295 CNS
[37] = system: NCI-H460 lung
[38] = system: CCRF-CEM leukemia
[39] = system: KM20L2 colon
[40] = system: LOX IMVI melanoma
[41] = system: DMS 273 small cell lung
[42] = system: OVCAR-3 ovarian
[43] = system: NCI-H23 lung
[44] = system: SF-268 CNS
[45] = system: KM12 colon
[46] = system: SK-MEL-28 melanoma
[47] = system: HOP-62 NSCLC
[48] = system: HCT-116 colon
[49] = system: COLO 205 colon
[50] = system: RPMI-8226 leukemia
[51] = system: RXF 393 renal
[52] = system: 786-0 renal
[53] = system: SNB-78 CNS
[54] = system: A549 NSCLC
[55] = system: OVCAR-4 ovarian
[56] = system: MOLT-4 leukemia
[57] = system: SR leukemia
[58] = system: SK-MEL-2 melanoma
[59] = system: HCT-15 colon

`CCOC(=O)C1N(S(=O)(=O)c2ccc(C)cc2)CCC12C(c1ccc(OC)c(OC)c1)=Nc1ccccc12` (stereo unspecified) gave a TGI [1] of over 100 µM, a TGI [2] of over 100 µM and a TGI [3] of over 100 µM. For the same compound, the TGI [4] was over 100 µM, the TGI [5] was over 100 µM and the TGI [6] was over 100 µM. It also gave a TGI [7] of over 100 µM, a TGI [8] of over 100 µM and a TGI [9] of over 100 µM. For the same compound, the TGI [10] was over 100 µM, the TGI [11] was over 100 µM and the TGI [12] was over 100 µM. The TGI [13] was over 100 µM, the TGI [14] was over 100 µM and the TGI [15] was over 100 µM. For the same compound, the TGI [16] was over 100 µM, the TGI [17] was over 100 µM and the TGI [18] was over 100 µM. It also gave a TGI [19] of over 100 µM, a TGI [20] of over 100 µM and a TGI [21] of over 100 µM. For the same compound, the TGI [22] was over 100 µM, the TGI [23] was over 100 µM and the TGI [24] was over 100 µM. It also gave a TGI [25] of over 100 µM, a TGI [26] of over 100 µM and a TGI [27] of over 100 µM. It also gave a TGI [28] of over 100 µM, a TGI [29] of over 100 µM and a TGI [30] of over 100 µM. It also gave a TGI [31] of over 100 µM, a TGI [32] of over 100 µM and a TGI [33] of over 100 µM. It also gave a TGI [34] of over 100 µM, a TGI [35] of over 100 µM and a TGI [36] of over 100 µM. For the same compound, the TGI [37] was over 100 µM, the TGI [38] was over 100 µM and the TGI [39] was over 100 µM. It also gave a TGI [40] of over 100 µM, a TGI [41] of over 100 µM and a TGI [42] of over 100 µM. For the same compound, the TGI [43] was over 100 µM, the TGI [44] was over 100 µM and the TGI [45] was over 100 µM. It also gave a TGI [46] of over 100 µM, a TGI [47] of over 100 µM and a TGI [48] of over 100 µM. It also gave a TGI [49] of over 100 µM, a TGI [50] of over 100 µM and a TGI [51] of over 100 µM. For the same compound, the TGI [52] was over 100 µM, the TGI [53] was over 100 µM and the TGI [54] was over 100 µM. It also gave a TGI [55] of over 100 µM.
`O=C(/C=C/c1ccccc1O)C(c1ccccc1)c1ccccc1` gave a TGI [1] of over 100 µM, a TGI [2] of over 100 µM and a TGI [3] of over 100 µM. For the same compound, the TGI [4] was over 100 µM, the TGI [5] was over 100 µM and the TGI [6] was over 100 µM. For the same compound, the TGI [7] was over 100 µM, the TGI [56] was over 100 µM and the TGI [8] was over 100 µM. For the same compound, the TGI [9] was over 100 µM, the TGI [10] was 27.6 µM and the TGI [11] was over 100 µM. For the same compound, the TGI [12] was over 100 µM, the TGI [57] was over 100 µM and the TGI [13] was over 100 µM. The TGI [14] was over 100 µM, the TGI [15] was over 100 µM and the TGI [58] was over 100 µM. For the same compound, the TGI [17] was over 100 µM, the TGI [18] was over 100 µM and the TGI [19] was over 100 µM. The TGI [20] was over 100 µM, the TGI [21] was over 100 µM and the TGI [22] was over 100 µM. The TGI [23] was over 100 µM, the TGI [24] was over 100 µM and the TGI [25] was over 100 µM. For the same compound, the TGI [26] was 75.1 µM, the TGI [27] was over 100 µM and the TGI [28] was over 100 µM. For the same compound, the TGI [29] was over 100 µM, the TGI [30] was over 100 µM and the TGI [31] was over 100 µM. For the same compound, the TGI [32] was over 100 µM, the TGI [33] was over 100 µM and the TGI [34] was over 100 µM. For the same compound, the TGI [35] was over 100 µM, the TGI [36] was over 100 µM and the TGI [37] was over 100 µM. It also gave a TGI [38] of over 100 µM, a TGI [39] of over 100 µM and a TGI [40] of 62.3 µM. The TGI [41] was over 100 µM, the TGI [42] was over 100 µM and the TGI [43] was over 100 µM. For the same compound, the TGI [44] was over 100 µM, the TGI [45] was over 100 µM and the TGI [46] was over 100 µM. It also gave a TGI [47] of over 100 µM, a TGI [48] of over 100 µM and a TGI [49] of over 100 µM. For the same compound, the TGI [50] was over 100 µM, the TGI [51] was over 100 µM and the TGI [52] was over 100 µM. It also gave a TGI [53] of over 100 µM, a TGI [54] of over 100 µM and a TGI [59] of over 100 µM. For the same compound, the TGI [55] was over 100 µM.
For `CC1(C)C(O)OC(O)C1(C)C` (stereo unspecified), the TGI [1] was over 100 µM, the TGI [2] was over 100 µM and the TGI [5] was over 100 µM. It also gave a TGI [6] of over 100 µM, a TGI [7] of over 100 µM and a TGI [56] of over 100 µM. The TGI [8] was over 100 µM, the TGI [9] was over 100 µM and the TGI [10] was over 100 µM. The TGI [11] was over 100 µM, the TGI [12] was over 100 µM and the TGI [13] was over 100 µM. For the same compound, the TGI [14] was over 100 µM, the TGI [15] was over 100 µM and the TGI [16] was over 100 µM. It also gave a TGI [58] of over 100 µM, a TGI [17] of over 100 µM and a TGI [18] of over 100 µM. It also gave a TGI [19] of over 100 µM, a TGI [20] of over 100 µM and a TGI [21] of over 100 µM. It also gave a TGI [22] of over 100 µM, a TGI [23] of over 100 µM and a TGI [24] of over 100 µM. For the same compound, the TGI [25] was over 100 µM, the TGI [26] was over 100 µM and the TGI [27] was over 100 µM. The TGI [28] was over 100 µM, the TGI [29] was over 100 µM and the TGI [31] was over 100 µM. It also gave a TGI [32] of over 100 µM, a TGI [33] of over 100 µM and a TGI [34] of over 100 µM. For the same compound, the TGI [35] was over 100 µM, the TGI [36] was over 100 µM and the TGI [37] was over 100 µM. It also gave a TGI [38] of over 100 µM, a TGI [39] of over 100 µM and a TGI [40] of over 100 µM. It also gave a TGI [41] of over 100 µM, a TGI [42] of over 100 µM and a TGI [45] of over 100 µM. For the same compound, the TGI [46] was over 100 µM, the TGI [47] was over 100 µM and the TGI [48] was over 100 µM. For the same compound, the TGI [49] was over 100 µM, the TGI [50] was over 100 µM and the TGI [51] was 94.6 µM. For the same compound, the TGI [52] was over 100 µM, the TGI [53] was over 100 µM and the TGI [54] was over 100 µM. For the same compound, the TGI [59] was over 100 µM and the TGI [55] was over 100 µM.

Source: PubChem BioAssay (NCI)
